Measured values as given in patent US20120121591A1 (priority 2009, published 2012).

Experiments:
Format in all cases: cell-based
[1] = tested on: IL-2 secretion from T cells in human whole blood; settings: read-out: WB (IL-2) IC50 (nM, Avg)
[2] = tested on: IFN-g secretion from T cells in human whole blood; settings: read-out: WB (IFNg) IC50 (nM, Avg)
[3] = biological target: hKv1.3 (Homo sapiens, UniProt P22001); test: cell-based; settings: Kv1.3 (IWQ) IC50 (nM, Avg)
Chain of hKv1.3 (P22001 whole entry): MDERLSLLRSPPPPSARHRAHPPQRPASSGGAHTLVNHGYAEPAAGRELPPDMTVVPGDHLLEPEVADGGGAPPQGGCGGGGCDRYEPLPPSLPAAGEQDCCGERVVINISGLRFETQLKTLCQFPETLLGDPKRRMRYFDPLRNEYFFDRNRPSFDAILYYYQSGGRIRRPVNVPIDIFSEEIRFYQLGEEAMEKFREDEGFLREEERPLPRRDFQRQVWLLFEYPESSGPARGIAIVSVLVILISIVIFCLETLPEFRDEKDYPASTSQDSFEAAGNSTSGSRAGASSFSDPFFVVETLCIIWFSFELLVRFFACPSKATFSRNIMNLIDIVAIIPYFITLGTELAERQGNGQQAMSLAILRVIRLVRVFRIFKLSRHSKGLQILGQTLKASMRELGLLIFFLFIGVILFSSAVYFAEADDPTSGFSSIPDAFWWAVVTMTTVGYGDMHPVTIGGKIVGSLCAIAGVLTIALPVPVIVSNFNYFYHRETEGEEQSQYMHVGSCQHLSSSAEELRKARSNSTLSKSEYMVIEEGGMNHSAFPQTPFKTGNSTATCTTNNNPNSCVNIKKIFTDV

SMILES | IC50 [1] [nM] | IC50 [2] [nM] | IC50 [3] [nM]
CCCC[C@@H]1NC(=O)[C@H](CO)NC(=O)[C@H](Cc2c[nH]cn2)NC(=O)[C@H](CCC(=O)O)NC(=O)[C@@H]2CSSC[C@@H]3NC(=O)[C@H]([C@@H](C)O)NC(=O)[C@H](CCCCN)NC(=O)[C@H](CCCNC(=N)N)NC(=O)[C@H](CSSC[C@H](NC(=O)[C@H](CCCNC(=N)N)NC(=O)[C@H](CO)NC(=O)[C@H](CCCCN)NC(=O)[C@@H]4CCCN4C(=O)[C@H]([C@@H](C)CC)NC(=O)[C@H]([C@@H](C)O)NC(=O)[C@H](CC(=O)O)NC(=O)[C@H](CCC(=O)O)NC(=O)[C@@H](NC(=O)[C@H](CO)NC(=O)[C@@H](N)CCCNC(=N)N)CSSC[C@@H](C(N)=O)NC(=O)[C@H]([C@@H](C)O)NC(=O)CNC3=O)C(=O)N[C@@H]([C@@H](C)O)C(=O)N[C@@H](C)C(=O)N[C@@H](Cc3ccccc3)C(=O)N[C@@H](CCCCN)C(=O)N2)NC(=O)[C@H](Cc2ccccc2)NC(=O)[C@H](CO)NC(=O)[C@H](CC(C)C)NC(=O)[C@H](CCCNC(=N)N)NC(=O)[C@H](Cc2ccc(O)cc2)NC(=O)[C@H](CCCCN)NC1=O [[Glu4,18, Lys16,Nle21]ShK-amide] | 0.603 | 0.934 | 0.239
CCCC[C@@H]1NC(=O)[C@H](CO)NC(=O)[C@H](Cc2c[nH]cn2)NC(=O)[C@H](CCC(=O)O)NC(=O)[C@@H]2CSSC[C@@H]3NC(=O)[C@H]([C@@H](C)O)NC(=O)[C@H](CCCCN)NC(=O)[C@H](CCCNC(=N)N)NC(=O)[C@H](CSSC[C@H](NC(=O)[C@H](CCCNC(=N)N)NC(=O)[C@H](CO)NC(=O)[C@H](CCCCN)NC(=O)[C@@H]4CCCN4C(=O)[C@H]([C@@H](C)CC)NC(=O)[C@H]([C@@H](C)O)NC(=O)[C@H](CC(=O)O)NC(=O)[C@H](CCC(=O)O)NC(=O)[C@@H](NC(=O)[C@H](CO)NC(=O)[C@@H](N)CCCNC(=N)N)CSSC[C@@H](C(N)=O)NC(=O)[C@H]([C@@H](C)O)NC(=O)CNC3=O)C(=O)N[C@@H]([C@@H](C)O)C(=O)N[C@@H](C)C(=O)N[C@@H](C)C(=O)N[C@@H](CCCCN)C(=O)N2)NC(=O)[C@H](Cc2ccccc2)NC(=O)[C@H](CO)NC(=O)[C@H](CC(C)C)NC(=O)[C@H](CCCNC(=N)N)NC(=O)[C@H](Cc2ccc(O)cc2)NC(=O)[C@H](CCCCN)NC1=O [[Glu4,18,A1a15,Lys16,Nle21]ShK-amide] | 1.22 | 1.6 | 0.346
CCCC[C@@H]1NC(=O)[C@H](CO)NC(=O)[C@H](Cc2c[nH]cn2)NC(=O)[C@H](CCCCN)NC(=O)[C@@H]2CSSC[C@@H]3NC(=O)[C@H]([C@@H](C)O)NC(=O)[C@H](CCCNC(=N)N)NC(=O)[C@H](CCCNC(=N)N)NC(=O)[C@H](CSSC[C@H](NC(=O)[C@H](CCCNC(=N)N)NC(=O)[C@H](CO)NC(=O)[C@H](CCCCN)NC(=O)[C@@H]4CCCN4C(=O)[C@H]([C@@H](C)CC)NC(=O)[C@H]([C@@H](C)O)NC(=O)[C@H](CC(=O)O)NC(=O)[C@H](CCC(=O)O)NC(=O)[C@@H](NC(=O)[C@H](CO)NC(=O)[C@@H](N)CCCNC(=N)N)CSSC[C@@H](C(N)=O)NC(=O)[C@H]([C@@H](C)O)NC(=O)CNC3=O)C(=O)N[C@@H]([C@@H](C)O)C(=O)N[C@@H](C)C(=O)N[C@@H](Cc3ccccc3)C(=O)N[C@@H](CCCCN)C(=O)N2)NC(=O)[C@H](Cc2ccccc2)NC(=O)[C@H](CO)NC(=O)[C@H](CC(C)C)NC(=O)[C@H](CCCNC(=N)N)NC(=O)[C@H](Cc2ccc(O)cc2)NC(=O)[C@H](CCCCN)NC1=O [[Glu4, Lys16, Nle21,Arg30]ShK-amide] | 1.18 | 1.34 | 0.132
CC[C@@H]1NC(=O)[C@H](CO)NC(=O)[C@H](Cc2c[nH]cn2)NC(=O)[C@H](CCCCN)NC(=O)[C@@H]2CSSC[C@@H]3NC(=O)[C@H]([C@@H](C)O)NC(=O)[C@H](CCCCN)NC(=O)[C@H](CCCNC(=N)N)NC(=O)[C@H](CSSC[C@H](NC(=O)[C@H](CCCNC(=N)N)NC(=O)[C@H](CO)NC(=O)[C@H](CCCCN)NC(=O)[C@@H]4CCCN4C(=O)[C@H]([C@@H](C)CC)NC(=O)[C@H]([C@@H](C)O)NC(=O)[C@H](CC(=O)O)NC(=O)[C@H](CCC(=O)O)NC(=O)[C@@H](NC(=O)[C@H](CO)NC(=O)[C@@H](N)CCCNC(=N)N)CSSC[C@@H](C(N)=O)NC(=O)[C@H]([C@@H](C)O)NC(=O)CNC3=O)C(=O)N[C@@H]([C@@H](C)O)C(=O)N[C@@H](C)C(=O)N[C@@H](Cc3ccccc3)C(=O)N[C@@H](CCCCN)C(=O)N2)NC(=O)[C@H](Cc2ccccc2)NC(=O)[C@H](CO)NC(=O)[C@H](CC(C)C)NC(=O)[C@H](CCCNC(=N)N)NC(=O)[C@H](Cc2ccc(O)cc2)NC(=O)[C@H](CCCCN)NC1=O [[Glu4, Lys16,Abu21]ShK-amide] | 1.11 | 1.76 | 0.33
CCCC[C@@H]1NC(=O)[C@H](CO)NC(=O)[C@H](Cc2c[nH]cn2)NC(=O)[C@H](CCCCN)NC(=O)[C@@H]2CSSC[C@@H]3NC(=O)[C@H]([C@@H](C)O)NC(=O)[C@H](CCCCN)NC(=O)[C@H](CCCNC(=N)N)NC(=O)[C@H](CSSC[C@H](NC(=O)[C@H](CCCNC(=N)N)NC(=O)[C@H](CO)NC(=O)[C@H](CCCCN)NC(=O)[C@@H]4CCCN4C(=O)[C@H]([C@@H](C)CC)NC(=O)[C@H]([C@@H](C)O)NC(=O)[C@H](CC(=O)O)NC(=O)[C@H](CCC(=O)O)NC(=O)[C@@H](NC(=O)[C@H](CO)NC(=O)[C@@H](N)CCCNC(=N)N)CSSC[C@@H](C(N)=O)NC(=O)[C@H]([C@@H](C)O)NC(=O)CNC3=O)C(=O)N[C@@H]([C@@H](C)O)C(=O)N[C@@H](C)C(=O)N[C@@H](Cc3ccccc3)C(=O)N[C@@H](CCCCN)C(=O)N2)NC(=O)[C@H](Cc2ccccc2)NC(=O)[C@H](CO)NC(=O)[C@H](CC(C)C)NC(=O)[C@H](CCCNC(=N)N)NC(=O)[C@H](Cc2ccc(O)cc2)NC(=O)[C@H](CCCCN)NC1=O [[Glu4, Lys16,Nle21]ShK-amide] | 0.57 | 0.965 | 0.149
CCC[C@@H]1NC(=O)[C@H](CO)NC(=O)[C@H](Cc2c[nH]cn2)NC(=O)[C@H](CCCCN)NC(=O)[C@@H]2CSSC[C@@H]3NC(=O)[C@H]([C@@H](C)O)NC(=O)[C@H](CCCCN)NC(=O)[C@H](CCCNC(=N)N)NC(=O)[C@H](CSSC[C@H](NC(=O)[C@H](CCCNC(=N)N)NC(=O)[C@H](CO)NC(=O)[C@H](CCCCN)NC(=O)[C@@H]4CCCN4C(=O)[C@H]([C@@H](C)CC)NC(=O)[C@H]([C@@H](C)O)NC(=O)[C@H](CC(=O)O)NC(=O)[C@H](CCC(=O)O)NC(=O)[C@@H](NC(=O)[C@H](CO)NC(=O)[C@@H](N)CCCNC(=N)N)CSSC[C@@H](C(N)=O)NC(=O)[C@H]([C@@H](C)O)NC(=O)CNC3=O)C(=O)N[C@@H]([C@@H](C)O)C(=O)N[C@@H](C)C(=O)N[C@@H](Cc3ccccc3)C(=O)N[C@@H](CCCCN)C(=O)N2)NC(=O)[C@H](Cc2ccccc2)NC(=O)[C@H](CO)NC(=O)[C@H](CC(C)C)NC(=O)[C@H](CCCNC(=N)N)NC(=O)[C@H](Cc2ccc(O)cc2)NC(=O)[C@H](CCCCN)NC1=O [[Glu4, Lys16,Nva21]ShK-amide] | 0.405 | 0.427 | 0.086
